Test results taken from US5811398A, “Platelet aggregation inhibitors containing C-terminal aminergic side chain amino acid residues” (G. D. Searle & Co., priority 1995, dated 1998).
pIC50: −log10 of the molar value.

Tested on: ADP-induced platelet aggregation in dog platelet-rich plasma (PRP)
Assay: In-Vitro Platelet Aggregation in PRP
Type: cell-based
Conditions: aggregation induced by ADP (50 μm final concentration), 1 minute preincubation at 37° C.
Description: In-Vitro Platelet Aggregation in PRP
Healthy male or female dogs were fasted for 8 hours prior to drawing blood; then 30 ml whole blood was collected using a butterfly needle and 30 cc plastic syringe with 3 ml of 0.129M buffered sodium citrate (3.8%). The syringe was rotated carefully as blood was drawn to mix the citrate. Platelet-rich plasma (PRP) was prepared by centrifugation at 975×g for 3.17 minutes at room temperature, allowing the centrifuge to coast to a stop without braking. The PRP was removed from the blood with a plastic pipette and placed in a plastic capped, 50 ml Corning conical sterile centrifuge tube which was held at room temperature. Platelet poor plasma (PPP) was prepared by centrifuging the remaining blood at 2000×g for 15 minutes at room temperature allowing the centrifuge to coast to a stop without braking. The PRP was adjusted with PPP to a count of 2-3×10^8 platelets per ml. 400 μl of the PRP preparation and 50 μl of the compound to be tested or saline were preincubated for 1 minute at 37° C. in a BioData aggregometer (BioData, Horsham, Pa.). 50 μl of adenosine 5'-diphosphate (ADP) (50 μm final concentration) was added to the cuvettes and the aggregation was monitored for 1 minute. […] Results are calculated as follows: [formula]
The assay results for the compound of Example 1 and its median inhibitory concentration (IC50) is recorded in Table I.

N=C(N)c1ccc(NC(=O)CCC(=O)N[C@@H](CC(=O)O)C(=O)N[C@@H](CCCCN)C(=O)O)cc1 [Example 1, N-[4-[[4-(aminoiminomethyl)phenyl]amino]-1,4-dioxobutyl]-L-aspartyl]-L-lysine bistrifluoroacetate]
pIC50: 6.74
